Entries after “also recorded” stand apart in the source; their conditions may differ.
Key:
[1] = Body weight and mobility of treated xenograft mice; format: in vivo, nude mice; details: 10 mg/kg daily (6 days/week), 17 days, FIG. 5B
Protocol: (§1) Male nude mice (fox1 nu/nu) of 4 weeks of life were purchased at Envigo (Udine, Italy) and left to acclimatize for 1 week. Hep3B cells (10×10^6 in 0.2 ml PBS), undergoing logarithmic growth, were inoculated in the right flank of the animals. When the tumors were palpable (about 300 mm^3), the mice were randomly divided into four groups of five animals each, with the various tumor volumes equally distributed between the four groups. Each group was treated for 17 days as indicated below.

[2] = test system: Hep3B hepatocellular carcinoma; assay: Hep3B xenograft in nude mice, therapeutic efficacy; format: in vivo; details: 10 mg/kg daily (6 days/week), 17 days, FIG. 5A
Protocol: as §1
Group 1: daily treatment (6 days/week) by intraperitoneal (IP) injection with 10 mg/kg of Sorafenib tosylate resuspended in DMSO and further diluted in a 25% solution of ethanol (DMSO-EtOH).
Group 2: carrier only (DMSO-EtOH).
Group 4: daily treatment (6 days/week) with 10 mg/kg of empty PBB nanoparticles resuspended in RPMI.
To quantify the Ki-67 cell proliferation marker expression, the ImmunoRatio® software (http://jvsmicroscope.uta.fi/immunoratio/) was used which, using a color deconvolution algorithm, calculates the percentage of positively marked area (area stained with diaminobenzidine) towards the total nuclear area. The hematoxylin stains were also acquired to analyze the neo-vascularization of the tumor, using the Leica DMR microscope equipped with a Leica DFC 320 digital camera.

[3] = Biodistribution of Sorafenib in tissues of treated mice; details: compared with Sorafenib PBB, p<0.01, FIG. 6
Protocol: The lyophilized nanoparticle samples were resuspended and sonicated as reported in cell viability assays. Tumor volumes and body weight were recorded twice a week as previously described (Cusimano et al., Cytotoxic activity of the novel small molecule AKT inhibitor SC66 in hepatocellular carcinoma cells. Oncotarget 2015, 6, 1707-1722). The mice were sacrificed by cervical dislocation when the tumor mass exceeded 10% of the body weight of the animals, or when the tumor mass appeared ulcerated or other morbid conditions were found, in accordance with the institutional guidelines and in accordance with the national law (Legislative Decree No. 26 4-3-2014) and international laws and policies (ECC Council Directive 86/609, OJ L358.1, Dec. 12, 1987). […] At the end of the trial, tumors, liver, kidneys, lungs and spleen were collected from each animal. Half of each tumor, or organ, was frozen in liquid nitrogen and stored at −80° C. for biodistribution analyzes, while the other half was fixated in formalin and used for immunohistochemistry analysis.
Sorafenib was extracted from the tissues of the treated animals following the procedure described in Craparo E F et al. Galactosylated polymeric carriers for liver targeting of Sorafenib. […]

Hep3B = assay: Cell viability assay (CellTiter) on Hep3B cells; format: cell-based, human; details: 72 hours
Protocol: (§2) The human hepatocellular carcinoma cell lines, HepG2 and Hep3B, were obtained from the American Type Culture Collection (ATCC). Cells were kept in 5% CO2 and grown in Roswell Park Memorial Institute (RPMI) medium (SIGMA, Milan, Italy), supplemented with 10% (v/v) fetal bovine serum (FBS) (Gibco, Life Technologies, Monza MB, Italy), 2 mM L-glutamine, 100 U/ml of penicillin-streptomycin and 1 mM of sodium pyruvate (SIGMA, Milan, Italy). Cell lines were regularly checked for possible mycoplasma contamination.
(§3) The latter were resuspended in sterile conditions in sterile H2O, sonicated for 20 min in a water sonicator, and diluted with a complete RPMI volume (2×). At the end of the treatment, cell viability assays were performed using the OneSolution aqueous CellTiter kit (Promega Corporation, Madison, Wis., USA). The percentage of cell viability was calculated with reference to the absorbance measured in the control cells. The experiments were performed in triplicate and the values expressed as mean±SD of three independent experiments.

HepG2 = assay: Cell viability assay (CellTiter) on HepG2 cells; format: cell-based, human
Protocol: as §2, §3

[4] = cited from earlier work
[5] = In vitro release of Sorafenib, dialysis tube method; format: physicochemical; details: SGF, SIF and PBS, 37° C.
Protocol: During the experiment, the temperature was maintained at 37° C. in a thermostatic stirrer and with stirring of 100 rpm. At scheduled time intervals, 1 ml aliquots were taken from the external medium and replaced with an equal volume of fresh receiving medium. The released Sorafenib was quantified by HPLC analysis. Each in vitro release experiment was repeated in triplicate.
A control experiment was also carried out to determine the dissolution of the free drug: an appropriate amount of Sorafenib was dispersed in the receiving medium, in order to have a final concentration of Sorafenib equal to that present in the nanoparticles, the dispersion was then introduced into a dialysis tube (cut-off 12000-14000 Da) which was immersed in a container containing the receiving medium. The amount of Sorafenib in the receiving medium was detected by HPLC analysis.
The amount of released Sorafenib was expressed as a percentage ratio between the released drug weight and the total amount of Sorafenib loaded into the nanoparticles. […] The cumulative release of Sorafenib in 24 hours was about 63% in SIF (panel B) and about 55% in PBS (panel C).

[6] = oral tablets, strong first-pass effect; cited from earlier work

CNC(=O)c1cc(Oc2ccc(NC(=O)Nc3ccc(Cl)c(C(F)(F)F)c3)cc2)ccn1 [Sorafenib, 4-[4-[[4-chloro-3-(trifluoromethyl)phenyl]carbamoylamino]phenoxy]-N-methyl-pyridine-2-carboxamide]
body weight [1]: did not show a significant loss of body weight
tumor growth [2]: reduced tumor growth compared to the carrier alone, although this difference was not significant
amount of Sorafenib detected in the lungs [3]: significantly higher
cell viability (Hep3B; 0.6-10 μM, FIG. 3): strongly decreased in a dose-dependent manner
IC50 (Hep3B; Homo sapiens, mean ± DS): 3.5 ± 0.5 µM
cell viability (HepG2; HepG2, 0.6-10 μM, 72 hours, FIG. 3): strongly decreased in a dose-dependent manner
IC50 (HepG2; Homo sapiens, HepG2, 72 hours, mean ± DS): 5.5 ± 1 µM
solubility in water [4]: slightly soluble; also recorded: poorly soluble
dissolution of free drug [5]: almost complete within two hours
bioavailability [6]: low

Source: patent publication US11285136B2, “Nanoparticles for controlled release of Sorafenib and Sorafenib derivatives” (DISTRETTO TECNOLOGICO SICILIA MICRO NANO SISTEMI S.C.A.R.L., priority 2017, dated 2022)
